Measurements reported in patent US20240415914A1, “Water Dispersible Cannabinoid Compositions” (priority 2021, published 2024).

Experiment: Stability of cannabinoid and Vitamin E components of Beverage 2 (AB Red) stored at 8° C. and 21-25° C., LCMSMS over 570 days

Measured: Stability of Cannabinoids in AB Red

Procedure: The LCMSMS was calibrated for 0-50 ng/ml cannabinoids with the same resin material used in the preparation of the concentrates. At each time period, 100 μml of beverage was diluted with 10 ml of methanol and injected into the LCMSMS for analysis.

C=C(C)[C@@H]1CCC(C)=C[C@H]1c1c(O)cc(CCCCC)c(C(=O)O)c1O [CBDA, cannabidiolic acid]
1.67 µg/mL: 21-25° C., 16 days | 21-25° C., 26 days
1.63 µg/mL: 8° C., 26 days | 8° C., 270 days | 8° C., 390 days | 8° C., 420 days | 8° C., 450 days | 21-25° C., 9 days | 21-25° C., 17 days | 21-25° C., 23 days
1.70 µg/mL: 8° C., 30 days | 21-25° C., 1 days | 21-25° C., 12 days | 21-25° C., 19 days
1.59 µg/mL: 21-25° C., 60 days | 21-25° C., 420 days
1.62 µg/mL: 21-25° C., 29 days
1.64 µg/mL: 21-25° C., 3 days | 21-25° C., 8 days | 21-25° C., 11 days | 21-25° C., 15 days | 21-25° C., 25 days | 21-25° C., 120 days | 21-25° C., 180 days | 21-25° C., 210 days
1.65 µg/mL: 8° C., 120 days | 8° C., 210 days | 8° C., 300 days | 21-25° C., 2 days | 21-25° C., 18 days | 21-25° C., 24 days | 21-25° C., 270 days | 21-25° C., 330 days
1.60 µg/mL: 8° C., 180 days | 8° C., 330 days | 8° C., 480 days | 21-25° C., 90 days | 21-25° C., 240 days
1.66 µg/mL: 8° C., 29 days | 8° C., 60 days | 8° C., 150 days | 8° C., 240 days | 21-25° C., 22 days
1.68 µg/mL: 8° C., 90 days | 21-25° C., 0 days | 21-25° C., 30 days
1.54 µg/mL: 8° C., 570 days | 21-25° C., 570 days
1.61 µg/mL: 21-25° C., 10 days | 21-25° C., 390 days
1.57 µg/mL: 21-25° C., 450 days | 21-25° C., 480 days | 21-25° C., 540 days
1.55 µg/mL: 8° C., 510 days | 8° C., 540 days
1.58 µg/mL: 21-25° C., 150 days | 21-25° C., 300 days
1.56 µg/mL: 21-25° C., 510 days
1.69 µg/mL: 21-25° C., 5 days
